From PubChem BioAssay (NCI)
Where “and” joins values, the source holds several entries; their conditions need not be identical. Equal values may be shown once.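 Interpolation was linear, between the two tested concentrations surrounding the appropriate level; five concentrations were tested over 48 hours in 96-well plates. GI50 is the concentration that inhibits growth by half. TGI denotes the concentration required for complete inhibition of growth.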

How the values were obtained:
Assay in all cases: NCI tumour cell line growth inhibition, 48 h
SW-620 colon = tested on: SW-620 colon
HS 578T breast = tested on: HS 578T breast
NCI/ADR-RES ovarian = tested on: NCI/ADR-RES ovarian
ACHN renal = tested on: ACHN renal
CCRF-CEM leukemia = tested on: CCRF-CEM leukemia
EKVX NSCLC = tested on: EKVX NSCLC
T-47D breast = tested on: T-47D breast
IGROV1 ovarian = tested on: IGROV1 ovarian
OVCAR-5 ovarian = tested on: OVCAR-5 ovarian
NCI-H522 lung = tested on: NCI-H522 lung
PC-3 prostate = tested on: PC-3 prostate
SF-295 CNS = tested on: SF-295 CNS
MALME-3M melanoma = tested on: MALME-3M melanoma
SR leukemia = tested on: SR leukemia
HOP-92 NSCLC = tested on: HOP-92 NSCLC
U251 CNS = tested on: U251 CNS
NCI-H460 lung = tested on: NCI-H460 lung
HOP-62 NSCLC = tested on: HOP-62 NSCLC
RXF 393 renal = tested on: RXF 393 renal
A549 NSCLC = tested on: A549 NSCLC
NCI-H226 lung = tested on: NCI-H226 lung
SK-OV-3 ovarian = tested on: SK-OV-3 ovarian
SNB-19 CNS = tested on: SNB-19 CNS
HL-60(TB) leukemia = tested on: HL-60(TB) leukemia
MCF7 breast = tested on: MCF7 breast
MOLT-4 leukemia = tested on: MOLT-4 leukemia
A498 renal = tested on: A498 renal
KM12 colon = tested on: KM12 colon
COLO 205 colon = tested on: COLO 205 colon

COc1cc(C2C3=C(COC3=O)N(CCO)c3cc4c(cc32)OCO4)cc(OC)c1OC (stereo not given)
GI50 (SW-620 colon): 439 nM and 697 nM
TGI (SW-620 colon): 12500 nM and > 16800 nM
GI50 (HS 578T breast): 276 nM and 268 nM
GI50 (NCI/ADR-RES ovarian): 3920 nM and 14800 nM
TGI (NCI/ADR-RES ovarian): 12500 nM and > 16800 nM
GI50 (ACHN renal): 1090 nM and 925 nM
TGI (ACHN renal): 12500 nM and > 16800 nM
GI50 (CCRF-CEM leukemia): 473 nM and 802 nM
TGI (CCRF-CEM leukemia): 12500 nM and > 16800 nM
GI50 (EKVX NSCLC): 6650 nM and 1030 nM
TGI (EKVX NSCLC): 12500 nM and > 16800 nM
GI50 (T-47D breast): 474 nM
TGI (T-47D breast): 12500 nM
GI50 (IGROV1 ovarian): 328 nM and 625 nM
TGI (IGROV1 ovarian): 1970 nM and 6300 nM
GI50 (OVCAR-5 ovarian): 1660 nM and 500 nM
TGI (OVCAR-5 ovarian): 12500 nM and > 16800 nM
GI50 (NCI-H522 lung): 173 nM and 260 nM
TGI (NCI-H522 lung): 666 nM and 1250 nM
GI50 (PC-3 prostate): 611 nM and 612 nM
TGI (PC-3 prostate): 12500 nM and > 16800 nM
GI50 (SF-295 CNS): 537 nM and 235 nM
GI50 (MALME-3M melanoma): 532 nM and 745 nM
TGI (MALME-3M melanoma): 12500 nM and > 16800 nM
GI50 (SR leukemia): 323 nM
TGI (SR leukemia): > 16800 nM
GI50 (HOP-92 NSCLC): 6020 nM and 5990 nM
TGI (HOP-92 NSCLC): 12500 nM and > 16800 nM
GI50 (U251 CNS): 500 nM and 631 nM
TGI (U251 CNS): 12500 nM and > 16800 nM
GI50 (NCI-H460 lung): 438 nM and 542 nM
TGI (NCI-H460 lung): 12500 nM and 3400 nM
GI50 (HOP-62 NSCLC): 779 nM and 738 nM
TGI (HOP-62 NSCLC): 12500 nM and > 16800 nM
GI50 (RXF 393 renal): 176 nM and 337 nM
TGI (RXF 393 renal): 501 nM and 931 nM
GI50 (A549 NSCLC): 595 nM and 1060 nM
TGI (A549 NSCLC): 12500 nM and > 16800 nM
GI50 (NCI-H226 lung): > 12500 nM and 2940 nM
TGI (NCI-H226 lung): > 16800 nM
GI50 (SK-OV-3 ovarian): 456 nM and 491 nM
TGI (SK-OV-3 ovarian): 7710 nM and > 16800 nM
GI50 (SNB-19 CNS): 408 nM and 720 nM
TGI (SNB-19 CNS): 6650 nM and > 16800 nM
GI50 (HL-60(TB) leukemia): 343 nM and 629 nM
GI50 (MCF7 breast): 409 nM and 426 nM
TGI (MCF7 breast): 12500 nM and > 16800 nM
GI50 (MOLT-4 leukemia): 675 nM and 4390 nM
TGI (MOLT-4 leukemia): 12500 nM and > 16800 nM
GI50 (A498 renal): 257 nM and 407 nM
TGI (A498 renal): 1070 nM and 8820 nM
GI50 (KM12 colon): 334 nM and 462 nM
TGI (KM12 colon): 2310 nM and 8860 nM
GI50 (COLO 205 colon): 360 nM and 332 nM
TGI (COLO 205 colon): 1020 nM and 765 nM
